Columns and labels:
Type in all cases: physicochemical
[1] = Transformation by slurry in other solvents (n-hexane, toluene, water) and drying, form determined by XRD
Description: Similarly to example 6 Zolmitriptan samples were slurried from other solvents or solvent systems after dissolution and precipitation from a specific solvent.

[2] = Transformation by pressing (crystal form before and after pressing); conditions: for Crystal Form after pressing: 100 mg pressed with approximately 1300 psi during 2 minutes
[3] = Polymorphic stability when maintained at room temperature
[4] = Transformation by heating and slurry in acetone-water mixture (20:80), form determined by XRD
Protocol: A sample of zolmitriptan (6 g) was placed in a glass flask with solvent and heated to reflux until the zolmitriptan dissolved. The zolmitriptan was cooled to room temperature while stirring, and left at 4° C. overnight. The mixture was filtered and the solid obtained was divided in half. One half of the solid was labeled “wet” and the other half was dried in a vacuum oven at about 60° C.-70° C. overnight and labeled as “dried.”
One third of the wet portion of each sample was separated for XRD, and marked as “_w” . One third of the dried portion of each sample was separated for XRD, and marked as “_d” . For example, “1w” refers to the wet portion of sample 1 analyzed by XRD before slurry in acetone/water, and “1d” refers to the dried portion of sample 1 analyzed by XRD before slurry in acetone/water.
The remaining two-thirds of the wet sample was weighed, placed in a glass flask containing 10 v/w of acetone:water (20:80), stirred for about 30 minutes at room temperature, and left at about 4° C. overnight. The mixture was filtered and the solid obtained was divided in half. One half was labeled “_w-ac-w.” The other half was dried in a vacuum oven at about 60° C.-70° C. overnight, and labeled “_w-ac-d.” For example, “1w-ac-w” refers to the portion of the wet sample resulting from slurry in acetone/water, while “1w-ac-d” refers to the portion of the wet sample resulting from slurry in acetone/water that was dried.
Likewise, the remaining two-thirds of the dry sample was weighed, placed in a glass flask containing 10 v/w of acetone:water (20:80), stirred for about 30 minutes at room temperature, and left at about 4° C. overnight. The mixture was filtered and the solid obtained was divided in half. One half was labeled “_d-ac-w.” The other half was dried in a vacuum oven at about 60° C.-70° C. overnight, and labeled “_d-ac-d.” For example, “1d-ac-w” refers to the portion of the dry sample resulting from slurry in acetone/water, while “1d-ac-d” refers to the portion of the dry sample resulting from slurry in acetone/water that was then dried.

[5] = Transformation of zolmitriptan crystal forms by heating in a conventional oven, form determined by XRD; conditions: for Crystal form after heating: about 1.5 to 2 hours, conventional oven, XRD
Protocol: Zolmitriptan (0.5 g) crystalline forms were heated in a conventional oven for a period of about 1.5 to 2 hours at different temperatures. The crystal form of the samples was determined by XRD before and after heating.

[6] = immersed in 10 v/w n-Hexane, filtered, sucked ½ hour on Buchner
[7] = Water, dried 63 °C under reduced pressure
[8] = immersed in 10 v/w Toluene, filtered, sucked ½ hour on Buchner
[9] = immersed in 10 v/w Water, filtered, sucked ½ hour on Buchner
[10] = Toluene, dried 63 °C under reduced pressure
[11] = n-Hexane, dried 63 °C under reduced pressure

## CN(C)CCc1c[nH]c2ccc(C[C@H]3COC(=O)N3)cc12 [Form E]
[1]; Toluene, dried 63 °C under reduced pressure, listed as E
  XRD sample (form after treatment): Form K
[1]; immersed in 10 v/w Water, filtered, sucked ½ hour on Buchner, listed as E
  XRD sample (form after treatment): Form A
[1]; [6]
  XRD sample (form after treatment): Form D
[1]; n-Hexane, dried 63 °C under reduced pressure, listed as E
  XRD sample (form after treatment): Form A + ˜30% D

## CN(C)CCc1c[nH]c2ccc(C[C@H]3COC(=O)N3)cc12 [Form D]
[2]
  Crystal Form after pressing: Form D
  transformation to other crystal form on pressing: not transform to other crystal form
[3]
  polymorphic stability (conversion to Form A): do not convert to Form A

## CN(C)CCc1c[nH]c2ccc(C[C@H]3COC(=O)N3)cc12 [Form F]
[2]
  Crystal Form after pressing: Form F
  transformation to other crystal form on pressing: not transform to other crystal form

## CN(C)CCc1c[nH]c2ccc(C[C@H]3COC(=O)N3)cc12 [Form R]
[1]; [7]
  XRD sample (form after treatment): Form A
[1]; [8]
  XRD sample (form after treatment): Form K
[1]; [9]
  XRD sample (form after treatment): Form A
[1]; [6]
  XRD sample (form after treatment): Form D
[1]; n-Hexane, dried 63 °C under reduced pressure, listed as R
  XRD sample (form after treatment): Essent.Am D

## CN(C)CCc1c[nH]c2ccc(C[C@H]3COC(=O)N3)cc12 [Form O]
[2]
  Crystal Form after pressing: Form O
  transformation to other crystal form on pressing: not transform to other crystal form

## CN(C)CCc1c[nH]c2ccc(C[C@H]3COC(=O)N3)cc12 [Sample 5]
[4]; _w-ac-w: wet sample slurried in 10 v/w acetone:water (20:80), 30 min room temperature, 4 °C overnight, filtered, not dried, listed as 5w-ac-w
  Resulting Crystal Form: Form A
[4]; _w: wet portion after crystallization, before slurry in acetone/water, listed as 5w
  Resulting Crystal Form: Form D

## CN(C)CCc1c[nH]c2ccc(C[C@H]3COC(=O)N3)cc12 [Form S]
[2]
  Crystal Form after pressing: Form S
  transformation to other crystal form on pressing: not transform to other crystal form
[3]
  polymorphic stability (conversion to Form A): do not convert to Form A
[1]; [10]
  XRD sample (form after treatment): Form A + ˜10% K
[1]; [7]
  XRD sample (form after treatment): Form A
[1]; [8]
  XRD sample (form after treatment): Form K
[1]; [9]
  XRD sample (form after treatment): Form A + ˜10% D
[1]; [6]
  XRD sample (form after treatment): Form D
[1]; [11]
  XRD sample (form after treatment): Form A + ˜20% D

## CN(C)CCc1c[nH]c2ccc(C[C@H]3COC(=O)N3)cc12 [Form T]
[2]
  Crystal Form after pressing: Form T
  transformation to other crystal form on pressing: not transform to other crystal form

## CN(C)CCc1c[nH]c2ccc(C[C@H]3COC(=O)N3)cc12 [Form K]
[2]
  Crystal Form after pressing: Form K
  transformation to other crystal form on pressing: not transform to other crystal form
[3]
  polymorphic stability (conversion to Form A): do not convert to Form A
[1]; [10]
  XRD sample (form after treatment): Form A
[1]; [7]
  XRD sample (form after treatment): Form A
[1]; [8]
  XRD sample (form after treatment): Form K
[1]; [9]
  XRD sample (form after treatment): Form A + ˜10% K
[1]; [6]
  XRD sample (form after treatment): Form D
[1]; [11]
  XRD sample (form after treatment): Form A

## CN(C)CCc1c[nH]c2ccc(C[C@H]3COC(=O)N3)cc12 [Form I]
[2]
  Crystal Form after pressing: Form I
  transformation to other crystal form on pressing: not transform to other crystal form
[3]
  polymorphic stability (conversion to Form A): do not convert to Form A
[1]; [10]
  XRD sample (form after treatment): Form A
[1]; [7]
  XRD sample (form after treatment): Form A
[1]; [8]
  XRD sample (form after treatment): Form K
[1]; [9]
  XRD sample (form after treatment): Form A
[1]; [6]
  XRD sample (form after treatment): Form D
[1]; [11]
  XRD sample (form after treatment): Form A

## CN(C)CCc1c[nH]c2ccc(C[C@H]3COC(=O)N3)cc12 [Form Q]
[5]; heating temp. 60 °C
  Crystal form after heating: A +

## CN(C)CCc1c[nH]c2ccc(C[C@H]3COC(=O)N3)cc12 [Form G]
[2]
  Crystal Form after pressing: Form G
  transformation to other crystal form on pressing: not transform to other crystal form
[3]
  polymorphic stability (conversion to Form A): do not convert to Form A
[1]; [10]
  XRD sample (form after treatment): Form A + ˜10% K
[1]; [7]
  XRD sample (form after treatment): Form A
[1]; [8]
  XRD sample (form after treatment): Form K
[1]; [9]
  XRD sample (form after treatment): Form A
[1]; [6]
  XRD sample (form after treatment): Form D
[1]; [11]
  XRD sample (form after treatment): Essent.Am D

## CN(C)CCc1c[nH]c2ccc(C[C@H]3COC(=O)N3)cc12 [Form P]
[2]
  Crystal Form after pressing: Form P
  transformation to other crystal form on pressing: not transform to other crystal form
[3]
  polymorphic stability (conversion to Form A): do not convert to Form A

## CN(C)CCc1c[nH]c2ccc(C[C@H]3COC(=O)N3)cc12 [Sample 4]
[4]; _w-ac-w: wet sample slurried in 10 v/w acetone:water (20:80), 30 min room temperature, 4 °C overnight, filtered, not dried, listed as 4w-ac-w
  Resulting Crystal Form: Form A
[4]; _w: wet portion after crystallization, before slurry in acetone/water, listed as 4w
  Resulting Crystal Form: Form A

## CN(C)CCc1c[nH]c2ccc(C[C@H]3COC(=O)N3)cc12 [Form H]
[2]
  Crystal Form after pressing: Form H
  transformation to other crystal form on pressing: not transform to other crystal form
[3]
  polymorphic stability (conversion to Form A): do not convert to Form A

## CN(C)CCc1c[nH]c2ccc(C[C@H]3COC(=O)N3)cc12 [Amorphous form]
[2]
  Crystal Form after pressing: Amorphous Form
  transformation to other crystal form on pressing: not transform to other crystal form
[5]; heated at about 60 °C to about 110 °C for about 2 hours
  stability upon heating (conversion to Form A): does not convert to Form A
[5]; heating temp. 60 °C
  Crystal form after heating: Amorph
[5]; heating temp. 100 °C
  Crystal form after heating: Amorph
[5]; heating temp. 110 °C
  Crystal form after heating: Amorph

## CN(C)CCc1c[nH]c2ccc(C[C@H]3COC(=O)N3)cc12 [Sample 8]
[4]; _w-ac-w: wet sample slurried in 10 v/w acetone:water (20:80), 30 min room temperature, 4 °C overnight, filtered, not dried, listed as 8w-ac-w
  Resulting Crystal Form: Form K + ˜30% A
[4]; _w: wet portion after crystallization, before slurry in acetone/water, listed as 8w
  Resulting Crystal Form: Form K

## CN(C)CCc1c[nH]c2ccc(C[C@H]3COC(=O)N3)cc12 [Sample 2]
[4]; _d-ac-w: dried sample slurried in 10 v/w acetone:water (20:80), 30 min room temperature, 4 °C overnight, filtered, not dried
  Resulting Crystal Form: Form A
[4]; _d: portion dried in vacuum oven 60-70 °C overnight, before slurry in acetone/water
  Resulting Crystal Form: Form A
[4]; _w-ac-d: wet sample slurried in acetone:water (20:80), then dried in vacuum oven 60-70 °C overnight
  Resulting Crystal Form: Form A
[4]; _w-ac-w: wet sample slurried in 10 v/w acetone:water (20:80), 30 min room temperature, 4 °C overnight, filtered, not dried, listed as 2w-ac-w
  Resulting Crystal Form: Form A
[4]; _w: wet portion after crystallization, before slurry in acetone/water, listed as 2w
  Resulting Crystal Form: Form Q

## CN(C)CCc1c[nH]c2ccc(C[C@H]3COC(=O)N3)cc12 [Sample 1]
[4]; _d-ac-d: dried sample slurried in acetone:water (20:80), then dried in vacuum oven 60-70 °C overnight
  Resulting Crystal Form: Form A
[4]; _w-ac-w: wet sample slurried in 10 v/w acetone:water (20:80), 30 min room temperature, 4 °C overnight, filtered, not dried, listed as 1w-ac-w
  Resulting Crystal Form: Form A
[4]; _w: wet portion after crystallization, before slurry in acetone/water, listed as 1w
  Resulting Crystal Form: Form A

## CN(C)CCc1c[nH]c2ccc(C[C@H]3COC(=O)N3)cc12 [Sample 3]
[4]; _w-ac-w: wet sample slurried in 10 v/w acetone:water (20:80), 30 min room temperature, 4 °C overnight, filtered, not dried, listed as 3w-ac-w
  Resulting Crystal Form: Form A
[4]; _w: wet portion after crystallization, before slurry in acetone/water, listed as 3w
  Resulting Crystal Form: Form G

## CN(C)CCc1c[nH]c2ccc(C[C@H]3COC(=O)N3)cc12 [Sample 6]
[4]; _w-ac-w: wet sample slurried in 10 v/w acetone:water (20:80), 30 min room temperature, 4 °C overnight, filtered, not dried, listed as 6w-ac-w
  Resulting Crystal Form: Form A
[4]; _w: wet portion after crystallization, before slurry in acetone/water, listed as 6w
  Resulting Crystal Form: Form S

## CN(C)CCc1c[nH]c2ccc(C[C@H]3COC(=O)N3)cc12 [Form M]
[2]
  Crystal Form after pressing: Form M
  transformation to other crystal form on pressing: not transform to other crystal form

## CN(C)CCc1c[nH]c2ccc(C[C@H]3COC(=O)N3)cc12 [Form J]
[2]
  Crystal Form after pressing: Form J
  transformation to other crystal form on pressing: not transform to other crystal form
[3]
  polymorphic stability (conversion to Form A): do not convert to Form A

## CN(C)CCc1c[nH]c2ccc(C[C@H]3COC(=O)N3)cc12 [Sample 7]
[4]; _w-ac-w: wet sample slurried in 10 v/w acetone:water (20:80), 30 min room temperature, 4 °C overnight, filtered, not dried, listed as 7w-ac-w
  Resulting Crystal Form: Form K + ˜30% A
[4]; _w: wet portion after crystallization, before slurry in acetone/water, listed as 7w
  Resulting Crystal Form: Form K
